Assay results from US20240164380A1, “ANTIFUNGAL COMPOSITIONS AND METHODS FOR THEIR USE” (Texas Crop Science, Inc., priority 2022, published 2024).

Experiments:
[1] = tested on: Zymoseptoria tritici (Septoria tritici); assay: Greenhouse crop test of Compound 1 with metconazole on winter wheat; type: in vivo; conditions: winter wheat infected with Z. tritici, preventative spray 1 d before inoculation, FIG. 9
Description: A 2019 field isolate of Zymoseptoria tritici (Septoria tritici) was grown on potato dextrose agar (PDA), amended with penicillin and streptomycin, to eliminate possible bacterial contamination, for 6 d at 20° C.
Spore suspensions were made by flooding the plates with sterile distilled water and scraping gently. The spore suspensions were adjusted to 10^6 conidia mL^−1, by haemocytometer counts and appropriate dilution, before final re-suspension in potato dextrose broth, amended with 1.5 g L^−1 gelatin and 0.5 g L^−1 sodium oleate.
Septoria-susceptible winter wheat cv Trinity was planted in Levington M3 compost. Seeds (12-15 per pot) were planted per 9 cm pot and grown to growth stage 12. Plants were accommodated in a glasshouse with day heating to 20° C., venting at 22° C., and night heating to maintain 15° C. Plants were inoculated with Z. tritici by spraying spore suspensions at 10^6 spores ml^−1 to just before run-off. Three replicate pots were used per treatment. The plants were placed in sealed, transparent propagators for 72 hours, to maintain high relative humidity and to ensure free water remained on leaves. […] Preventative fungicide sprays were made 1 d before inoculation. Treatments were randomised within the glasshouse. All fungicides were applied at the equivalent rate of 200 L water per hectare, using a calibrated pressurised hand-held sprayer. […]

apyrase = assay: In vitro apyrase assay (screen for apyrase inhibitors); type: biochemical; conditions: inhibitor conc at 1 mM, 1 hr at room temperature, absorbance @630 nm
Description: Method 1: In Vitro Apyrase Assay:
The apyrase inhibitory activity was assessed using an in vitro assay. The method of Windsor, Bio Techniques 33:1024-1030 (November 2002) was used as follows:
96 well plates were used for the assay: (Greiner bio-one: REF-655901- 96 well, PS, F-bottom, Clear, Non-binding)
Reaction Buffer: 60 mM Hepes; 3 mM MgCl2, 3 mM CaCl2 and 3 mM ATP (pH 6.5)
Development Buffer A: 2% aqueous ammonium molybdate
Development Buffer B: 11% ascorbic acid in 37.5% TCA in water
Stop buffer C: 2% trisodium citrate in 2% acetic acid solution in water • Add 100 μl of reaction buffer to each well. • Add 10 μl of DMSO (control) or inhibitor/compound or compounds such as N1915 or orthovanadate to each well. (use inhibitor conc at 1 mM; orthovanadate at 2 mM and N1915 at 1 mM) • Add 10 μl of apyrase (concentration based on optimization—Dilute 1 U/μl enzyme to different concentrations such as 0.1 U, 0.05 U, 0.0025, 0.001 U, 0.0005 U—to find a good range) • Incubate plate at room temperature for 1 hr • Mix development buffer A and B in the ratio of 1:1.5 (just before use). • Add 50 ul of A:B mix in each well (incubate for 2 mins) • Add 50 ul of C in each well • Measure/Read Absorbance of plate @630 nm Compound 1 inhibited inhibited apyrase in this assay at about 60%. : […]

plant pathogenic fungi = assay: Crop trials of fungicides with and without the enhancer compound (FIGS. 1-8); type: in vivo; conditions: soy, wheat and grape crops
Excerpt: FIG. 1 illustrates Asian soybean rust severity in untreated crop (UTC) versus soy treated with azoxystrobin, chlorothalonil, tebuconazole or azoxystrobin and tebuconazole with and without the present enhancer compound (TX 15) at 1, 7, 9, 14 and 16 days after application (DAA).
FIG. 2 illustrates frogeye leaf spot intensity of infection in soy in untreated crop (UTC) versus soy treated with azoxystrobin, chlorothalonil, tebuconazole or azoxystrobin and tebuconazole with and without the present enhancer compound (TX15) at 4, 11 and 18 (two trials) days after application (DAA).
FIG. 3 illustrates yellow rust foliar infection percentage of wheat in untreated crop (UTC) versus wheat with preventive application of AMISTAR® (azoxystrobin), folpet, PROLINE® (prothioconazole), REVYSTAR® (fluxapyroxad and mefentrifluconazole), A20944 (prothioconazole and pydiflumetofen), ELATUS® ERA (prothioconazole and benzovindiflupyr), A21857 (ADEPIDYN®; pydiflumetofen), INATREQ® (fenpicoxamid) with and without the present enhancer compound (TX 15). […]
FIG. 7 illustrates the severity of downy mildew attack on grape crops assessed as to bunches and leaves in untreated crop (UTC) versus crop treated with cyazofamid or cyazofamid and the present enhancer compound (TX 15). […]

Row | SMILES | effect of combining Compound 1 (TX15) with the fungicide [1] | inhibited apyrase (apyrase) | fungal growth in combination with exemplary fungicides (plant pathogenic fungi)
1 | CC1(C)CCC(Cc2ccc(Cl)cc2)C1(O)Cn1cncn1 (stereo not drawn) [metconazole] | synergistic effect |  | 
2 | C/C(=N\NC(=O)c1cccc(C)c1)c1ccc2ccccc2c1 [Compound 1, (E)-3-methyl-N′-(1-(naphthalen-2-yl)ethylidene)benzohydrazide] |  | about 60% | dramatically reduces fungal growth
